Results from PubChem BioAssay AID179 (DTP/NCI, 2004).
Active and inactive are the calls of the source.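 How the source made its calls: active means compounds giving half or more protection of infected cells from virus-caused growth loss, again on retest; inactive means the rest.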

Test system: CEM cells HIV-1 protection, formazan growth assay
Test: NCI AIDS Antiviral Assay
Conditions: for IC50: measured here: growth of uninfected CEM cells
Outline: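 Human CEM cells, uninfected and HIV-1-infected, received five drug concentrations, and growth was read by soluble formazan assay. Compounds giving at least 50% protection were retested; reproducible 100% protection defined confirmed active.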

Row | Structure (SMILES) | EC50 | IC50 | outcome
1 | S=C(N/N=C\C=N/NC(=S)N1CCCCCC1)N1CCCCCC1 | > 100 µM | 14.1 µM | 
2 | COC1/C=C\C=C(/C)C(=O)NC2=CC(=O)C=C(C2=O)C(OC)C(C)CC(OC)C(OC)C(C)/C=C(/C)C1OC(N)=O (stereo not drawn) | > 63.1 µM | 0.407 µM | 
3 | c1ccc(CCN2CCc3[nH]c4ccccc4c3C2)cc1 | > 200 µM | 39.8 µM | 
4 | COc1cc(/C=C(\C#N)C(=O)c2ccccc2)ccc1OCc1ccccc1 | > 19.5 µM | > 19.5 µM | 
5 | c1c(N2CCOCC2)ssc1=[N+]1CCOCC1 |  |  | inactive
6 | N#Cc1snc2sc(=O)sc12 | > 112 µM | 8.71 µM | 
7 | COc1cc2c(cc1OC)C(c1ccccc1CCCCl)=NCC2 | > 200 µM | 75.9 µM | 
8 | Nc1cc(C(=O)Nc2ccc(C3=NCCN3)cc2)cc(C(=O)Nc2ccc(C3=NCCN3)cc2)c1 | 16.2 µM | 145 µM | 
9 | S=C(N/N=C\c1ccccn1)N(Cc1ccccn1)Cc1ccccn1 | > 2 µM | 0.955 µM | 
10 | COc1ccc2ccccc2c1Br | > 200 µM | > 200 µM | 
11 | CCc1c(O)nc(Nc2nc3ccccc3[nH]2)[nH]c1=O | > 200 µM | > 200 µM | 
12 | COc1ccc(N2C(=O)C3c4[nH]c5ccccc5c4C4CC(C)CC(C)C4C3C2=O)cc1 (stereo not drawn) | > 2.45 µM | > 2.45 µM | 
13 | N#C/C(=C\c1cc(O)c(O)c(I)c1)C(=O)NCCCc1ccccc1 | > 200 µM | 9.55 µM | 
14 | c1ccc(Cc2nnc3n2CCC(c2ccccc2)S3)cc1 (stereo not drawn) | > 200 µM | > 200 µM | 
15 | COc1ccc(C2=CC(=O)CCC2)cc1 | > 178 µM | > 178 µM | 
16 | CC1=C(C(=O)NCc2ccccc2)C(c2ccc([N+](=O)[O-])cc2)C(C(=O)NCc2ccccc2)=C(C)N1 | > 14.5 µM | > 14.5 µM | 
17 | N#CI1OC(=O)c2ccccc21 | > 200 µM | > 100 µM | 
18 | Nc1ccc(-c2nc3ccccc3s2)cc1S(=O)(=O)O | > 200 µM | 60.3 µM | 
19 | Nc1ncnc2oc(-c3ccccc3)nc12 | > 195 µM | > 195 µM | 
20 | NC1=C(Cl)C(=O)c2ccccc2C1=O | > 200 µM |  | 
21 | CN1CCC(SC2Cc3cc(Cl)ccc3Sc3ccccc32)CC1 (stereo not drawn) | > 69.2 µM | 12 µM | 
22 | CCOP(=O)(OCC)/C(C#N)=C/c1ccc(C(F)(F)F)cc1 | > 107 µM | 57.5 µM | 
23 | CN(C)c1ccc(/C=C(\NC(=O)c2ccccc2)c2nc3ncncc3[nH]2)cc1 |  |  | inactive

Row | Structure (SMILES) | EC50 | IC50 | outcome
24 | Cc1n[nH]c(=O)n1/N=C\CC/C=N\n1c(C)n[nH]c1=O | > 200 µM | > 200 µM | 
25 | CS[C@]12[C@@H]3C(=O)N(C)C(=O)[C@@H]3[C@](C)(C(=O)N1C)C(=O)N2c1ccccc1 | > 200 µM | > 200 µM | 
26 | CCC12C=CCN3CCC4(C(=C(C(=O)OC)C1)Nc1ccccc14)[C@H]32 (stereo partly drawn) | > 120 µM | 5.25 µM | 
27 | CCOCCOCCCNCC(=O)N1CCN(C(=O)CNCCCOCCOCC)CC1 |  |  | inactive
28 | COC1=CC(=O)C(=O)c2c(C)ccnc21 |  |  | inactive
29 | O=C(CCc1cccc(O)c1)NCCc1cccc(O)c1 | > 200 µM | > 200 µM | 
30 | Cc1c(C(=O)O)n2c(C)nnc2c2ccccc12 | > 200 µM | > 200 µM | 
31 | O=C(OCC(Cl)(Cl)Cl)N1CC[C@H](C2CCCCC2)C1 | > 200 µM | 50.1 µM | 
32 | CCOC(=O)Cc1nc2sc(C)c(-c3ccccc3)c2c(=O)[nH]1 | > 110 µM | > 110 µM | 
33 | CCc1n[nH]c(=O)n1NC(=O)/C=C\C(=O)O | > 200 µM | > 200 µM | 
34 | CCCc1cc(=O)oc2c3c(c4c(c12)OC(C)(C)C=C4)O[C@H](C)[C@@H](C)[C@H]3O[Si](C)(C)C(C)(C)C | > 200 µM | > 200 µM | 
35 | CC(C)(C)c1cc(Cc2ccc([N+](C)(C)C)cc2)c(O)c(C(C)(C)C)c1 |  |  | inactive
36 | O=C1Nc2ccccc2/C1=N\[O-].O=C1Nc2ccccc2/C1=N\[O-].[Cu+2] | > 200 µM | > 200 µM | 
37 | O=C(OCCN=C1c2ccccc2CCc2ccccc21)c1ccccc1 | > 200 µM | > 200 µM | 
38 | O=C(O)C[C@@H]1C(=O)OC2C3COC(=O)c4cc(O)c(O)c(O)c4-c4c(cc(O)c(O)c4O)C(=O)OC2C(OC(=O)c2cc(O)c(O)c4c2C1[C@H](O)C(=O)O4)C(OC(=O)c1cc(O)c(O)c(O)c1)O3 (stereo partly drawn) | 2.63 µM | 12.9 µM | 
39 | COC(=O)/N=[N+](\[O-])C(c1ccc(Cl)cc1)c1ccc(Cl)cc1 | > 200 µM | 64.6 µM | 
40 | S=C1SCC2CCCN12 (stereo not drawn) |  |  | inactive
41 | CC(=O)N/N=C1\NN(C(C)=O)C2(S1)C(=O)Nc1ccccc12 (stereo not drawn) | > 200 µM | > 200 µM | 
42 | CC1=C(C)CS(=O)N(c2ccccc2)C1 (stereo not drawn) | > 200 µM | 89.1 µM | 
43 | O=c1cnc2c(ccc3ccccc32)[nH]1 | > 182 µM | > 182 µM | 
44 | COC(=O)c1ccc(/C=C2\Oc3cc(O)ccc3C2=O)cc1 | > 200 µM | 182 µM | 
45 | CCOC(=O)N1C2C=CC(C2)N1C(=O)Nc1ccc(Cl)cc1 (stereo not drawn) | > 200 µM | 170 µM | 
